The test system of one data set is HCT116-DoxR 3D spheroids. Nature of the data set: CellTox Green cytotoxicity assay in 3D spheroids. The following applies: 4.8 μM Cu1a or 5.8 μM Cu1b; 3, 24, 48, 72 h. It counts as cell-based, human. As for the experimental part:
Moreover, over time a detachment of death cells from the spheroids is observed (with green cells in the periphery of the outer region of the spheroids more clearly visualized at 72 h of exposure; Figure 5B and Supplementary Figure S16B,C).
HCT116-DoxR cells were seeded at 5 × 10^4 cells/mL in super low Attachment 96-well plates (NunclonSphera U-Shaped-Bottom Microplate, Thermo Fisher Scientific, Waltham, MA, USA) and incubated at 37 °C in a humidified atmosphere with 5% (v/v) CO2, to allow spheroids formation and growth.[60],[105] To perform the cell viability study, two methods were used: the MTS assay and the CellTox assay.
For the CellTox assay, HCT116DoxR spheroids grown for 6 to 9 days were used. […] CellTox Green dye is an asymmetric cyanine dye that enters cells with compromised membrane integrity and binds to DNA, which enhances its fluorescence. […] Therefore, higher levels of fluorescence are associated with a higher number of death cells.[106] […] After 3, 24, 48, and 72 h of incubation, fluorescence images were acquired with Ti–U Eclipse inverted microscope (Nikon), with a FITC filter (excitation at 465–495 nm, in the blue region, and emission at 515–555 nm, in the green region).
The software ImageJ was used for fluorescence quantification in which the Corrected Total Cell Fluorescence (CTCF, eq 6) was determined. […]

For another data set, the system named is calf-thymus DNA (ctDNA). Nature of the data set: UV-vis absorption titration with ctDNA. Type of data set: binding. Conditions: hyperchromic effect at ∼350 nm. As for the experimental part:
For both Cu(II) complexes, the addition of DNA results in a gradual increase in the absorption intensity of the band at ∼350 nm, while the band position remains the same (Figure 14).
These values fall in the range reported previously for related Cu(II) complex with 4′-((naphthalen-2-yl)methoxy)-2,2′:6′,2″-terpyridine[21] that was proposed as an “outside binder”.
Absorption titration experiments were conducted by maintaining the complex concentration constant (25 μM) and varying the concentration of ctDNA (0–100 μM). Blank ctDNA samples were used as a reference.

Data set [1] in a line: Stability in solution by UV-vis spectrophotometry. It counts as physicochemical. The following applies: c = 25 μM, spectra every 4 h for 72 h. The protocol:
The stability of Cu1a-d and Cu2a-d was assessed using a spectrophotometric method. Absorption spectra of the Cu(II) complexes were collected every 4 h for 72 h in DMSO and phosphate-buffered saline (PBS) solutions (c = 25 μM) (see Figure S6 and Table S9 in ESI). The diluted solutions in a water-based medium were prepared from concentrated (50 mM) stock solutions in DMSO. […] In contrast, Cu(II) complexes with dtpy-based ligands (Cu2a–d) decomposed within a few minutes in DMSO, showing UV–vis spectra almost overlapping with those of the free ligands (Figure S7). […] In PBS, compounds Cu2a–d tended to aggregate rapidly due to the release of the organic ligand, which is insoluble in water.
Infrared spectra were performed with the KBr technique on a Nicolet iS5 FT-IR spectrophotometer in the range of 4000–400 cm^–1. Elemental analyses (C, H, N) were recorded on a Perkin–Elemer CHN–2400 analyzer. HR-ESI-MS analyses were performed on a maXis Impact Q-TOF mass spectrometer (Bruker Daltonics) or a Xevo G2 Q-TOF mass spectrometer (Waters Corporation, USA), both with an ESI ion source operating in positive-ion mode. Samples were diluted in LC-MS grade acetonitrile. The accurate mass and composition for the molecular ion adducts were calculated using Data Analysis 4.1 software (Bruker, Germany) or MassLynx software (Waters). […] The eluted compounds were monitored in the range 190–400 nm. […]

Data set [2] in a line: Stability/solubility in RPMI culture medium by UV-vis. Type of data set: physicochemical. Conditions: 50 μM, without phenol red and FBS, 0 to 3 h, 37 °C. The protocol:
The complexes (powder form) were first dissolved in 100% (v/v) DMSO and subsequently in RPMI culture medium without phenol red and fetal bovine serum (FBS), at a final concentration of 50 μM. Absorption spectra were recorded in the wavelength range of 220–800 nm. As previously, high-energy absorption bands corresponding to π → π* and n → π* transitions with peaks between 230 and 380 nm ranges were observed, which may correspond to the aromatic rings of terpyridine.[24],[38]
Copper complex stability in a biological medium was analyzed through UV–vis spectroscopy spanning a range from 220 to 800 nm. Complexes were dissolved in 100% (v/v) DMSO and subsequently diluted with RPMI medium (without phenol red) to achieve a final concentration of 50 μM. The measurements were conducted in a quartz cuvette with a 1 cm path length. Spectral analyses were obtained after 0, 3, 6, 24, and 48 h on the Evolution 300 UV–vis spectrophotometer (Thermo Fisher Scientific in Waltham, MA, USA).

For `[Cl][Cu-3]12([Cl])[n+]3ccccc3-c3cc(-c4cccc5ccccc45)cc([n+]31)-c1cccc[n+]12` [Cu1a], the “cell death in spheroids (CellTox Green fluorescence)” value with HCT116-DoxR 3D spheroids was “the increase of cell death”. Moreover, in the data set on calf-thymus DNA (ctDNA), the “mode of interaction with DNA” value is “nonintercalative interactions with DNA, most likely via groove binding”. Further, in data set [1], the “stability/solubility in PBS” value is recorded as “no solubility issues were observed”. Further, the “solubility/stability in RPMI culture medium” value in data set [2] was “maintenance of solubility”.
`[Cl][Cu-3]12([Cl])[n+]3ccccc3-c3cc(-c4ccc5ccccc5c4)cc([n+]31)-c1cccc[n+]12` [Cu1b]: the “cell death in spheroids (CellTox Green fluorescence)” value in the data set with HCT116-DoxR 3D spheroids was “the increase of cell death”. Further, the “mode of interaction with DNA” value in the data set on calf-thymus DNA (ctDNA) is given as “nonintercalative interactions with DNA, most likely via groove binding”. The “stability/solubility in PBS” value in data set [1] is reported as “no solubility issues were observed”. In addition, the “solubility/stability in RPMI culture medium” value in data set [2] was “a slight reduction of its solubility from 0 to 3 h”.

The record behind these values is publication PMC11571215, “Optimization of Antiproliferative Properties of Triimine Copper(II) Complexes” (Journal of Medicinal Chemistry, 2024).
